According to patent US20190307776A1, “AZA-S[…] HUMAN IMMUNODEFICIENCY VIRUS REPLICATION” (priority 2016, published 2019):

The compounds below were run on recombinant NL4-3 virus (assay: HIV cell culture assay). Details: Human immunodeficiency virus 1, NL43, MT2.
Type: cell-based
Method: HIV cell culture assay—MT-2 cells and 293T cells were obtained from the NIH AIDS Research and Reference Reagent Program. MT-2 cells were propagated in RPMI 1640 media supplemented with 10% heat inactivated fetal bovine serum, 100 […]. The 293T cells were propagated in DMEM media supplemented with 10% heat inactivated fetal bovine serum (FBS), 100 units/ml penicillin G and 100 μg/ml streptomycin. The proviral DNA clone of NL4-3 was obtained from the NIH AIDS Research and Reference Reagent Program. A recombinant NL4-3 virus, in which a section of the nef gene from NL4-3 was replaced with the Renilla luciferase gene, was used as a reference virus. In addition, residue Gag P373 was converted to P373S. Briefly, the recombinant virus was prepared by transfection of the altered proviral clone of NL4-3. Transfections were performed in 293T cells using LipofectAMINE PLUS from Invitrogen (Carlsbad, Calif.), according to manufacturer's instruction. The virus was titered in MT-2 cells using luciferase enzyme activity as a marker. Luciferase was quantitated using the Dual Luciferase kit from Promega (Madison, Wis.), with modifications to the manufacturer's protocol. The diluted Passive Lysis solution was pre-mixed with the re-suspended Luciferase Assay Reagent and the re-suspended Stop & Glo Substrate (2:1:1 ratio). Fifty (50) μL of the mixture was added to each aspirated well on assay plates and luciferase activity was measured immediately on a Wallac TriLux (Perkin-Elmer). Antiviral activities of inhibitors toward the recombinant virus were quantified by measuring luciferase activity in cells infected for 4-5 days with NLRluc recombinants in the presence serial dilutions of the inhibitor.
For `C=C(C)[C@@H]1CC[C@]2(CO)CC[C@]3(C)[C@H](CC[C@@H]4[C@@]5(C)CCCN(C(=O)CC(=O)O)C(C)(C)C5CC[C@]43C)[C@@H]12` (stereo partly drawn) [Example 1, 3-((7aR,7bR,9aS,12R,12aR,12bR,14aR,14bR)-9a-(hydroxymethyl)-5,5,7a,7b,14b-pentamethyl-12-(prop-1-en-2-yl)icosahydrocyclopenta[7,8]phenanthro[2,1-c]azepin-4(1H)-yl)-3-oxopropanoic acid], the EC50 was 2310 nM.
Compound `C=C(C)[C@@H]1CC[C@]2(CO)CC[C@]3(C)[C@H](CC[C@@H]4[C@@]5(C)CCCN(C(=O)c6cccc(C(=O)O)c6)C(C)(C)C5CC[C@]43C)[C@@H]12` (stereo partly drawn) [Example 2, 3-((7aR,7bR,9aS,12R,12aR,12bR,14aR,14bR)-9a-(hydroxymethyl)-5,5,7a,7b,14b-pentamethyl-12-(prop-1-en-2-yl)docosahydrocyclopenta[7,8]phenanthro[2,1-c]azepine-4-carbonyl)benzoic acid] has an EC50 of over 8000 nM.
`C=C(C)[C@@H]1CC[C@]2(CO)CC[C@]3(C)[C@H](CC[C@@H]4[C@@]5(C)CCCN(C(=O)CCC(=O)O)C(C)(C)C5CC[C@]43C)[C@@H]12` (stereo partly drawn) [Example 3, 4-((7aR,7bR,9aS,12R,12aR,12bR,14aR,14bR)-9a-(hydroxymethyl)-5,5,7a,7b,14b-pentamethyl-12-(prop-1-en-2-yl)icosahydrocyclopenta[7,8]phenanthro[2,1-c]azepin-4(1H)-yl)-4-oxobutanoic acid] was tested, and the EC50 was over 8000 nM.
In the case of `C=C(C)[C@@H]1CC[C@]2(CO)CC[C@]3(C)[C@H](CC[C@@H]4[C@@]5(C)CCCN(C(=O)CCCCC(=O)O)C(C)(C)C5CC[C@]43C)[C@@H]12` (stereo partly drawn) [Example 4, 6-((7aR,7bR,9aS,12R,12aR,12bR,14aR,14bR)-9a-(hydroxymethyl)-5,5,7a,7b,14b-pentamethyl-12-(prop-1-en-2-yl)icosahydrocyclopenta[7,8]phenanthro[2,1-c]azepin-4(1H)-yl)-6-oxohexanoic acid], the EC50 is reported as over 8000 nM.
For `C=C(C)[C@@H]1CC[C@]2(CO)CC[C@]3(C)[C@H](CC[C@@H]4[C@@]5(C)CCN(C(=O)c6cccc(C(=O)O)c6)C(C)(C)C5CC[C@]43C)[C@@H]12` (stereo partly drawn) [Example 5, 3-((6aR,6bR,8aS,11R,11aR,11bR,13aR,13bR)-8a-(hydroxymethyl)-4,4,6a,6b,13b-pentamethyl-11-(prop-1-en-2-yl)icosahydro-1H-cyclopenta[5,6]naphtho[2,1-f]isoquinoline-3-carbonyl)benzoic acid], the EC50 was 1250 nM.
`C=C(C)[C@@H]1CC[C@]2(CO)CC[C@]3(C)[C@H](CC[C@@H]4[C@@]5(C)CCN(C(=O)C(=O)O)C(C)(C)C5CC[C@]43C)[C@@H]12` (stereo partly drawn) [Example 6, 2-((6aR,6bR,8aS,11R,11aR,11bR,13aR,13bR)-8a-(hydroxymethyl)-4,4,6a,6b,13b-pentamethyl-11-(prop-1-en-2-yl)icosahydro-3H-cyclopenta[5,6]naphtho[2,1-f]isoquinolin-3-yl)-2-oxoacetic acid] gave an EC50 of 4000 nM.
Compound `C=C(C)[C@@H]1CC[C@]2(CO)CC[C@]3(C)[C@H](CC[C@@H]4[C@@]5(C)CCN(C(=O)CC(=O)O)C(C)(C)C5CC[C@]43C)[C@@H]12` (stereo partly drawn) [Example 7, 3-((6aR,6bR,8aS,11R,11aR,11bR,13aR,13bR)-8a-(hydroxymethyl)-4,4,6a,6b,13b-pentamethyl-11-(prop-1-en-2-yl)icosahydro-3H-cyclopenta[5,6]naphtho[2,1-f]isoquinolin-3-yl)-3-oxopropanoic acid] has an EC50 of 480 nM.
Work on `C=C(C)[C@@H]1CC[C@]2(CO)CC[C@]3(C)[C@H](CC[C@@H]4[C@@]5(C)CCN(C(=O)CCCC(=O)O)C(C)(C)C5CC[C@]43C)[C@@H]12` (stereo partly drawn) [Example 8, 5-((6aR,6bR,8aS,11R,11aR,11bR,13aR,13bR)-8a-(hydroxymethyl)-4,4,6a,6b,13b-pentamethyl-11-(prop-1-en-2-yl)icosahydro-3H-cyclopenta[5,6]naphtho[2,1-f]isoquinolin-3-yl)-5-oxopentanoic acid] yielded an EC50 of 1810 nM.
`C=C(C)[C@@H]1CC[C@]2(CO)CC[C@]3(C)[C@H](CC[C@@H]4[C@@]5(C)CCN(C(=O)CCC(=O)O)C(C)(C)C5CC[C@]43C)[C@@H]12` (stereo partly drawn) [Example 9, 4-((6aR,6bR,8aS,11R,11aR,11bR,13aR,13bR)-8a-(hydroxymethyl)-4,4,6a,6b,13b-pentamethyl-11-(prop-1-en-2-yl)icosahydro-3H-cyclopenta[5,6]naphtho[2,1-f]isoquinolin-3-yl)-4-oxobutanoic acid] was tested, and the EC50 was 2760 nM.
With `C=C(C)[C@@H]1CC[C@]2(CO)CC[C@]3(C)[C@H](CC[C@@H]4[C@@]5(C)CCN(C(=O)c6ccc(C(=O)O)cc6)C(C)(C)C5CC[C@]43C)[C@@H]12` (stereo partly drawn) [Example 10, 4-((6aR,6bR,8aS,11R,11aR,11bR,13aR,13bR)-8a-(hydroxymethyl)-4,4,6a,6b,13b-pentamethyl-11-(prop-1-en-2-yl)icosahydro-1H-cyclopenta[5,6]naphtho[2,1-f]isoquinoline-3-carbonyl)benzoic acid] the EC50 was 320 nM.
For `C=C(C)[C@@H]1CC[C@]2(CO)CC[C@]3(C)[C@H](CC[C@@H]4[C@@]5(C)CCCN(S(=O)(=O)c6ccc(C(=O)O)o6)C(C)(C)C5CC[C@]43C)[C@@H]12` (stereo partly drawn) [Example 11, 5-(((7aR,7bR,9aS,12R,12aR,12bR,14aR,14bR)-9a-(hydroxymethyl)-5,5,7a,7b,14b-pentamethyl-12-(prop-1-en-2-yl)icosahydrocyclopenta[7,8]phenanthro[2,1-c]azepin-4(1H)-yl)sulfonyl)furan-2-carboxylic acid], the EC50 was over 8000 nM.
In the case of `C=C(C)[C@@H]1CC[C@]2(CO)CC[C@]3(C)[C@H](CC[C@@H]4[C@@]5(C)CCCN(S(=O)(=O)c6ccc(/C=C/C(=O)O)cc6)C(C)(C)C5CC[C@]43C)[C@@H]12` (stereo partly drawn) [Example 12, (E)-3-(4-(((7aR,7bR,9aS,12R,12aR,12bR,14aR,14bR)-9a-(hydroxymethyl)-5,5,7a,7b,14b-pentamethyl-12-(prop-1-en-2-yl)icosahydrocyclopenta[7,8]phenanthro[2,1-c]azepin-4(1H)-yl)sulfonyl)phenyl)acrylic acid], the EC50 is reported as over 8000 nM.
In the case of `C=C(C)[C@@H]1CC[C@]2(CO)CC[C@]3(C)[C@H](CC[C@@H]4[C@@]5(C)CCCN(S(=O)(=O)c6cccc(C(=O)O)c6)C(C)(C)C5CC[C@]43C)[C@@H]12` (stereo partly drawn) [Example 13, 3-(((7aR,7bR,9aS,12R,12aR,12bR,14aR,14bR)-9a-(hydroxymethyl)-5,5,7a,7b,14b-pentamethyl-12-(prop-1-en-2-yl)icosahydrocyclopenta[7,8]phenanthro[2,1-c]azepin-4(1H)-yl)sulfonyl)benzoic acid], the EC50 is reported as over 8000 nM.
`C=C(C)[C@@H]1CC[C@]2(CO)CC[C@]3(C)[C@H](CC[C@@H]4[C@@]5(C)CCCN(S(=O)(=O)c6ccc(C(=O)O)cc6)C(C)(C)C5CC[C@]43C)[C@@H]12` (stereo partly drawn) [Example 14, 4-(((7aR,7bR,9aS,12R,12aR,12bR,14aR,14bR)-9a-(hydroxymethyl)-5,5,7a,7b,14b-pentamethyl-12-(prop-1-en-2-yl)icosahydrocyclopenta[7,8]phenanthro[2,1-c]azepin-4(1H)-yl)sulfonyl)benzoic acid] was tested, and the EC50 was 1700 nM.
In the case of `C=C(C)[C@@H]1CC[C@]2(CO)CC[C@]3(C)[C@H](CC[C@@H]4[C@@]5(C)CCCN(S(=O)(=O)c6ccc(CC(=O)O)cc6)C(C)(C)C5CC[C@]43C)[C@@H]12` (stereo partly drawn) [Example 15, 2-(4-(((7aR,7bR,9aS,12R,12aR,12bR,14aR,14bR)-9a-(hydroxymethyl)-5,5,7a,7b,14b-pentamethyl-12-(prop-1-en-2-yl)icosahydrocyclopenta[7,8]phenanthro[2,1-c]azepin-4(1H)-yl)sulfonyl)phenyl)acetic acid], the EC50 is reported as over 8000 nM.
Compound `C=C(C)[C@@H]1CC[C@]2(CO)CC[C@]3(C)[C@H](CC[C@@H]4[C@@]5(C)CCCN(S(=O)(=O)c6ccc(C)c(C(=O)O)c6)C(C)(C)C5CC[C@]43C)[C@@H]12` (stereo partly drawn) [Example 16, 5-(((7aR,7bR,9aS,12R,12aR,12bR,14aR,14bR)-9a-(hydroxymethyl)-5,5,7a,7b,14b-pentamethyl-12-(prop-1-en-2-yl)icosahydrocyclopenta[7,8]phenanthro[2,1-c]azepin-4(1H)-yl)sulfonyl)-2-methylbenzoic acid] has an EC50 of over 8000 nM.
In the case of `C=C(C)[C@@H]1CC[C@]2(CO)CC[C@]3(C)[C@H](CC[C@@H]4[C@@]5(C)CCN(S(=O)(=O)c6cccc(C(=O)O)c6)C(C)(C)C5CC[C@]43C)[C@@H]12` (stereo partly drawn) [Example 17, 3-(((6aR,6bR,8aS,11R,11aR,11bR,13aR,13bR)-8a-(hydroxymethyl)-4,4,6a,6b,13b-pentamethyl-11-(prop-1-en-2-yl)icosahydro-3H-cyclopenta[5,6]naphtho[2,1-f]isoquinolin-3-yl)sulfonyl)benzoic acid], the EC50 is reported as 4940 nM.
